Experimental findings from patent publication US12458630B2, “Combination therapy for cancer” (The Regents of the University of California, priority 2020, dated 2025) are described below.

Experiment [1] deals with KC6141 cells. In words: BrdU incorporation (immunofluorescence). The class given is cell-based, mouse. The conditions noted are these: 0.5 mM glucose, 24 hrs; for BrdU incorporation (cell proliferation): KC6141 cells on ECM. (In general: Dividing cells build labelled thymidine or BrdU into new DNA.)
Experiment [2] has as its system human PDAC 1444 tumors. In words: s.c. tumors in nude mice. The class given is in vivo, mouse. Particulars: EIPA 7.5 mg/kg, MRT68921 10 mg/kg, 15 days. As for the experimental part: (§1) In some embodiments, to evaluate the effects of MP on tumor growth or survival in the autochthonous model, Kras^G12D;Ikkα^ΔPEC mice, at 4 weeks of age, were treated with vehicle or 10 mg/kg EIPA (Sigma) by i.p. injection every other day for 1 month. After that, surgically removed pancreata were weighed and used for further analysis and other mice were continued to maintain for survival. To evaluate the effects of MP on heterotopic xenografts, female homozygous BALB/c Nu/Nu nude mice were injected subcutaneously (s.c.) in both flanks at 7 weeks of age with 10^6 parental and IKKα^Δ MIA PaCa-2 cells or 1334 and 1444 cells mixed at a 1:1 dilution with BD Matrigel (BD Biosciences) in a total volume of 100 μl. Mice were treated with vehicle (DMSO in PBS), EIPA (7.5 mg/kg), MRT68921 (10 mg/kg) or MRT68921 and EIPA for 15 days when tumors attained an average volume of 50-100 mm^3. Volumes (1/2×(width^2×length)) of s.c. tumors were calculated on the basis of measurements using digital calipers after 15 days of treatment. To evaluate the combination effects of autophagy and MP inhibition on tumor growth, C57BL/6 mice were injected s.c. at 7 weeks of age with 10^6 parental, Ikkα KD, Nhe1 KD or Ikkα+Nhe1 DKD KC6141 cells in a total volume of 100 μl. Mice were treated with or without vehicle, EIPA (7.5 mg/kg), MRT68921 (10 mg/kg), or EIPA and MRT68921 for 21 days when tumors attained an average volume of 50-100 mm^3. Tumor volumes were calculated as above.

Experiment [3] relates to human PDAC 1334 tumors. In words: s.c. tumors in nude mice. The conditions noted are these: EIPA 7.5 mg/kg, MRT68921 10 mg/kg, 15 days. The class given is in vivo, mouse. As for the experimental part: as §1
The test system of experiment [4] is MIA PaCa-2 cells. In words: TMR-DEX macropinosome uptake assay. The class given is cell-based, human. As for the experimental part: Cell imaging. Immunostaining was performed as described^44. Cells were cultured on coverslips and fixed in 4% PFA for 10 min at room temperature. After washing twice in PBS, cells were incubated in PBS containing 10% FBS to block nonspecific sites of antibody adsorption. The cells were then incubated with the appropriate primary antibodies (diluted 1:100) and secondary antibodies (diluted 1:500) in PBS containing 10% FBS with or without 0.1% saponin. For cell macropinosome visualization, 24 hrs after seeding, the cells were serum starved for 18 hrs. Macropinosomes were marked using a high-molecular-mass (70 KD) TMR-Dextran (Invitrogen)-uptake assay, wherein TMR-DEX was added to serum-free medium at a final concentration of 1 mg/ml for 30 min at 37° C. At the end of the incubation period, the cells were rinsed five times in cold PBS and immediately fixed in 4% PFA. For tissue macropinosome visualization^45, fresh pancreata were cut into pieces with an approximate 5-mm cuboidal shape. A tissue section was placed in a 24-well plate and injected 150 μL of 10 mg/ml TMR-DEX solution directly into the tissue piece. Another 250 μL of diluted TMR-DEX solution were added to the well to immerse the tissue section. The plate was incubated in the dark for 15 min at room temperature. Then the tissue section was rinsed twice in PBS before embedding in O.C.T. compound in a prelabeled cryomold. Specimens were frozen on dry ice and stored at −80° C. for further processing. Immunostaining was performed as described above. Images were captured using a TCS SPE Leica confocal microscope (Leica, Germany).
In some embodiments, Immunostaining was performed as described (Su et al., 2017). Cells were cultured on coverslips and fixed in 4% PFA for 10 min at room temperature or methanol for 10 min at −20° C. After washing twice in PBS, cells were incubated in PBS containing 10% FBS to block nonspecific sites of antibody adsorption. The cells were then incubated with the appropriate primary antibodies (diluted 1:100) and secondary antibodies (diluted 1:500) in PBS containing 10% FBS with or without 0.1% saponin. For cell macropinosome visualization, 24 hrs after seeding, the cells were serum starved for 18 hrs. Macropinosomes were marked using a high-molecular-mass (70 KDa) TMR-DEX (Invitrogen)-uptake assay, wherein TMR-DEX was added to serum-free medium at a final concentration of 1 mg/ml for 30 min at 37° C. At the end of the incubation period, the cells were rinsed five times in cold PBS and immediately fixed in 4% PFA. For tissue macropinosome visualization (Lee et al., 2019), fresh pancreata were cut into pieces with an approximate 5-mm cuboidal shape. Tissue fragments were placed in a 24-well plate and injected with 150 μL of 10 mg/ml TMR-DEX solution. Another 250 μL of diluted TMR-DEX solution were added to the well to immerse the tissue fragment. The plate was incubated in the dark for 15 min at room temperature. Then the tissue fragments were rinsed twice in PBS before embedding in O.C.T. compound in a prelabeled cryomold. Specimens were frozen on dry ice and stored at −80° C. for further processing. Immunostaining was performed as described above. Images were captured using a TCS SPE Leica confocal microscope (Leica, Germany).
Quantification and statistics. To quantify the number of LC3 puncta, a total of 30 cells were recorded and analyzed using the LAS X measurement program on the TCS SPE Leica. Macropinosomes were quantified by using the ‘Analyze Particles’ feature in ImageJ (National Institutes of Health). Macropinocytic uptake index was computed by determining the total macropinosome area in relation to the total cell area for each field and then by determining the average across all the fields (at least 6 fields). These measurements were done on randomly-selected fields of view. Two-tailed unpaired Student's t test was performed for statistical analysis using GraphPad Prism software. […]

Each structure is given as a SMILES string. Entries after “also recorded” stand apart in the source; their conditions may differ.

For `CCN(c1nc(N)c(C(=O)N=C(N)N)nc1Cl)C(C)C` [EIPA, 5-(N-ethyl-N-isopropyl) amiloride], the “BrdU incorporation (cell proliferation)” value in experiment [1] is on record as “reduced; also recorded: suppressed cell proliferation in all conditions”. In addition, in experiment [1] (Nrf2 KD KC6141 cells on ECM), the “BrdU incorporation in NRF2 ablated cells” value is “ineffective”. For the same compound, the results for the tumor growth entry in experiment [2] and in experiment [3] were “small effect” and “sensitive to EIPA”, respectively. The “macropinosome formation (TMR-DEX labeling)” value in experiment [4] (parental and IKKα-KO (IKKα^Δ) MIA PaCa-2 cells, 75 μM EIPA) is on record as “blocks macropinosome formation; also recorded: inhibited; also recorded: suppressed”.
In the case of `CN1CCc2cc(Nc3ncc(C4CC4)c(NCCCNC(=O)C4CCC4)n3)ccc2C1` [MRT68921], the “BrdU incorporation (cell proliferation)” value in experiment [1] was “further elevated”; in experiment [1] (listed as MRT) it was “enhanced cell proliferation in WT, but not in Nrf2 KD KC6141”. Also, the figures for the tumor growth entry in experiment [2] and in experiment [3] were “small effect” and “insensitive to MRT68921”, respectively. The “relative macropinocytic uptake (macropinosomes)” value in experiment [4] (MIA PaCa-2 cells +/- MRT68921) is recorded as “more macropinosomes; also recorded: increased macropinosomes; also recorded: enhanced”.
